Experimental data published in patent US7183375B2, “Inhibitors for continuous activation for calcineurin” (Agencey of Industrial Science and Technology, priority 2002, dated 2007).
Where a SMILES comes first, the peptide text is derived from it. Where no end group is shown, it is not given here.

Key:
[1] = test system: neuronal cell death; conditions: reported in literature (Morioka 1999; Springer 2000); cited from earlier work
[2] = test system: calcineurin subunit A (CaNA); assay: Cleavage of CaNA in cultured neuronal cells after glutamic acid addition (Western blotting); format: cell-based, Wister rat; conditions: peptides of SEQ Nos. 5 and 6 at 1 μM; glutamic acid 500 μM, 15 minutes; cells collected at 3 hours and 24 hours; FIG. 1
Method: (§1) After the brain hippocampus from 18 days embryo of Wister rat had been removed, it was treated with PBS containing 0.05% trypsin for 15 minutes at 37° C. After the neuronal cells were suspended with a glass pipet, 1×10^6 cells were cultured in a 3.5 cm diameter culture dish which was previously coated with poly-D-lysine. As the medium, 3 ml Neuro Basal medium (available from Invitrogen, Inc.) complemented with B27 supplement (0.03 ml; available from Invitrogen, Inc.), penicillin (100 units/ml in the final concentration; available from Invitrogen, Inc.) and streptomycin (100 μg/ml in the final concentration; available from Invitrogen, Inc.) was used and the cultivation was carried out in carbon dioxide incubator (5% CO2, 37° C.).
The peptides of above-mentioned SEQ Nos. 5 and 6 were added in the culture solution with the final concentration of 1 μM 10 days after beginning of culture, and it was incubated in carbon dioxide incubator (5% CO2, 37° C.). Three hours after the addition, glutamic acid was added in the final concentration of 500 μM, and it was incubated for 15 minutes. The culture solution was then exchanged, and it was further cultured. The cells were collected at 3 hours and 24 hours after glutamic acid was added, were disrupted by ultrasonic wave in 1% SDS solution, and the SDS-PAGE buffer was added thereto. […]

[3] = test system: neuronal cells; assay: Neuronal cell death induced by glutamic acid (TUNEL staining, TUNEL positive cell count); format: cell-based, Wister rat; conditions: peptides of SEQ Nos. 5 and 6 1 μM, FK506 1 μM, ALLM 25 μM; glutamic acid 500 μM; TUNEL at 3, 6, 12 or 24 hours; FIG. 2
Method: as §1
The neuronal cells were cultured in the same manner as in Example 1, and then the above-mentioned peptides of SEQ Nos. 5 and 6 were added in the final concentration of 1 μM in the same manner as in Example 1. The calcineurin inhibitor, FK506 (available from Fujisawa pharmaceutical Co., Ltd.; the final concentration of 1 μM) or calpain inhibitor, ALLM (available from Merck & Co., Inc.; the final concentration of 25 μM) was added as a control. After 2 hours incubation with each reagent, glutamic acid was added in the final concentration of 500 μM, followed by 15 minutes incubation. […] The TUNEL positive cell was counted.

| Compound | neuronal cell death [1] | cleavage of calcineurin caused by the addition of glutamic acid [2] | neuronal cell death induced by glutamic acid [3] |
| --- | --- | --- | --- |
| cyclosporin A | suppresses neuronal cell death |  |  |
| cleavage inhibiting peptide: peptides of SEQ Nos. 5 and 6 added together to the culture solution, 1 μM final concentration (chain 1 RRRRRRRRRRFDGATAAARKEVIRNK; chain 2 RRRRRRRRRRREESESVLTLKGLTPTG; also: mixture of two peptides added together) |  | inhibited | suppressive effect |
| CSCC[C@@H](C=O)NC(=O)[C@H](CC(C)C)NC(=O)[C@H](CC(C)C)NC(C)=O [ALLM] (Ac-Leu-Leu-Met-aldehyde) |  |  | same degree |
